Experimental data taken from ChEMBL document CHEMBL4825690, “Synthesis and biological evaluation of chalcone-polyamine conjugates as novel vectorized agents in colorectal and prostate cancer chemotherapy” (Eur J Med Chem, 2021).
Activity calls are given as the source filed them. The calls are words filed in the database; no cut-off is given here.

Assays:
HCT-116 [1] = test: Induction of apoptosis in human HCT-116 cells assessed as viable cells incubated for 48 hrs by annexin-V/FITC and propidium iodide staining based flow cytometry analysis (reference value: […] %); assay type: functional
HCT-116 [2] = test: Induction of cell cycle arrest in human HCT-116 cells assessed as accumulation at G1 phase at IC50 incubated for 48 hrs by RNaeA/propidium iodide based flow cytometry analysis (reference value: 51.56 %); assay type: functional
HT-29 [3] = test: Induction of cell cycle arrest in human HT-29 cells assessed as accumulation at G2 phase at IC50 incubated for 48 hrs by RNaeA/propidium iodide based flow cytometry analysis (reference value: 13..16 %); assay type: functional
DU-145 [4] = test: Induction of cell cycle arrest in human DU-145 cells assessed as accumulation at sub-G1 phase at IC50 incubated for 48 hrs by RNaeA/propidium iodide based flow cytometry analysis (reference value: 0 %); assay type: functional
HT-29 [5] = test: Induction of cell cycle arrest at G1 phase in human HT-29 cells assessed as reduction in CDK4 expression by Western blot analysis; assay type: functional, cell-based
HCT-116 [6] = test: Antiproliferative activity against human HCT116 cells assessed as reduction in cell viability incubated for 48 hr by MTT assay; assay type: functional, cell-based; conditions: HCT-116, 48 h
HCT-116 [7] = test: Induction of apoptosis in human HCT-116 cells assessed as increase in caspase-3 level by Western blot assay; assay type: functional, cell-based
HT-29 [8] = test: Induction of apoptosis in human HT-29 cells assessed as increase in cleaved PARP protein expression by Western blot assay; assay type: functional, cell-based
Tubulin (Homo sapiens) = Tubulin (Homo sapiens) (UniProt P68371+Q9H4B7+P0DPH7+P68366+Q13509+Q71U36+P04350+Q3ZCM7+P07437+P68363+Q9BQE3+Q6PEY2+Q13885+Q9BVA1+Q9BUF5); test: Inhibition of tubulin polymerization in human HeLa cells measured after 2 hrs by fluorescent immunostaining method; assay type: cell-based
HT-29 [9] = test: Induction of cell cycle arrest at G1 phase in human HT-29 cells assessed as reduction in Cyclin D1 expression by Western blot analysis; assay type: functional, cell-based
HCT-116 [10] = test: Induction of apoptosis in human HCT-116 cells assessed as increase in DNA fragmentation after 48 hrs by ELISA relative to control; assay type: functional
DU-145 [11] = test: Induction of apoptosis in human DU-145 cells assessed as decrease in PARP protein expression by Western blot assay; assay type: functional, cell-based
PC-3 [12] = test: Antiproliferative activity against human PC3 cells assessed as reduction in cell viability incubated for 48 hr by MTT assay; assay type: functional, cell-based; conditions: PC-3, 48 h
PC-3 [13] = test: Induction of apoptosis in human PC-3 cells assessed as decrease in pro-caspase-3 expression by Western blot assay; assay type: functional, cell-based
HT-29 [14] = test: Induction of apoptosis in human HT-29 cells assessed as viable cells incubated for 48 hrs by annexin-V/FITC and propidium iodide staining based flow cytometry analysis (reference value: 83.56 %); assay type: functional
HT-29 [15] = test: Induction of apoptosis in human HT-29 cells assessed as necrotic cells incubated for 48 hrs by annexin-V/FITC and propidium iodide staining based flow cytometry analysis (reference value: 3.52%); assay type: functional
HT-29 [16] = test: Induction of apoptosis in human HT-29 cells assessed as early apoptotic cells incubated for 48 hrs by annexin-V/FITC and propidium iodide staining based flow cytometry analysis (reference value: 3.37%); assay type: functional
DU-145 [17] = test: Antiproliferative activity against human DU145 cells assessed as reduction in cell viability incubated for 48 hr by MTT assay; assay type: functional, cell-based; conditions: DU-145, 48 h
HCT-116 [18] = test: Induction of apoptosis in human HCT-116 cells assessed as necrotic cells incubated for 48 hrs by annexin-V/FITC and propidium iodide staining based flow cytometry analysis (reference value: 7.22 %); assay type: functional
DU-145 [19] = test: Induction of apoptosis in human DU-145 cells assessed as increase in cleaved PARP protein expression by Western blot assay; assay type: functional, cell-based
PC-3 [20] = test: Induction of apoptosis in human PC-3 cells assessed as necrotic cells incubated for 48 hrs by annexin-V/FITC and propidium iodide staining based flow cytometry analysis (reference value: 0.54 %); assay type: functional
HCT-116 [21] = test: Induction of apoptosis in human HCT-116 cells assessed as late apoptotic cells incubated for 48 hrs by annexin-V/FITC and propidium iodide staining based flow cytometry analysis (reference value: 7.22 %); assay type: functional
HCT-116 [22] = test: Induction of cell cycle arrest in human HCT-116 cells assessed as increase in Cyclin D1 expression by Western blot analysis; assay type: functional, cell-based
HCT-116 [23] = test: Induction of cell cycle arrest in human HCT-116 cells assessed as accumulation at G2 phase at IC50 incubated for 48 hrs by RNaeA/propidium iodide based flow cytometry analysis (reference value: 17.76 %); assay type: functional
HT-29 [24] = test: Induction of apoptosis in human HT-29 cells assessed as late apoptotic cells incubated for 48 hrs by annexin-V/FITC and propidium iodide staining based flow cytometry analysis (reference value: 9.52%); assay type: functional
PC-3 [25] = test: Induction of cell cycle arrest in human PC3 cells assessed as accumulation at S phase at IC50 incubated for 48 hrs by RNaeA/propidium iodide based flow cytometry analysis (reference value: 33.66 %); assay type: functional
HT-29 [26] = test: Induction of cell cycle arrest in human HT-29 cells assessed as accumulation at S phase at IC50 incubated for 48 hrs by RNaeA/propidium iodide based flow cytometry analysis (reference value: 32.45 %); assay type: functional
HCT-116 [27] = test: Induction of apoptosis in human HCT-116 cells assessed as early apoptotic cells incubated for 48 hrs by annexin-V/FITC and propidium iodide staining based flow cytometry analysis (reference value: 5.21 %); assay type: functional
PC-3 [28] = test: Induction of cell cycle arrest in human PC-3 cells assessed as decrease in cyclin A2 expression by Western blot analysis; assay type: functional, cell-based
HT-29 [29] = test: Induction of apoptosis in human HT-29 cells assessed as increase in DNA fragmentation after 48 hrs by ELISA relative to control; assay type: functional
DU-145 [30] = test: Induction of apoptosis in human DU-145 cells assessed as necrotic cells incubated for 48 hrs by annexin-V/FITC and propidium iodide staining based flow cytometry analysis (reference value: 0.04 %); assay type: functional
HT-29 [31] = test: Induction of cell cycle arrest at G1 phase in human HT-29 cells assessed as reduction in Cyclin E2 expression by Western blot analysis; assay type: functional, cell-based
DU-145 [32] = test: Induction of cell cycle arrest in human DU-145 cells assessed as effect on cyclin B1 expression by Western blot analysis; assay type: functional, cell-based

For `COc1cc(C(=O)/C=C/c2ccc(OCCCNCCCNCCCCN)cc2)cc(OC)c1OC`, the Activity (HCT-116 [1]) was 52.13%, the Activity (HCT-116 [2]) was 65.67% and the Activity (HT-29 [3]) was 13.32%. For the same compound, the Activity (DU-145 [4]) was 9.28%, the Activity (HT-29 [5]) was “Active” and the IC50 (HCT-116 [6]) was 8.13 µM. The Activity (HCT-116 [7]) was “Active”, the Activity (HT-29 [8]) was “Active” and the inhibition (Tubulin (Homo sapiens)) was “inactive”. The Activity (HT-29 [9]) was “Active”, the “fold change (FC)” value (HCT-116 [10]) was 4.72 and the Activity (DU-145 [11]) was “Active”. The IC50 (PC-3 [12]) was 13.7 µM, the Activity (PC-3 [13]) was “Active” and the Activity (HT-29 [14]) was 56.67%. The Activity (HT-29 [15]) was 0.6%, the Activity (HT-29 [16]) was 11.04% and the IC50 (DU-145 [17]) was 8.86 µM. The Activity (HCT-116 [18]) was 3.35%, the Activity (DU-145 [19]) was “Active” and the Activity (PC-3 [20]) was 2.63%. The Activity (HCT-116 [21]) was 21.6%, the Activity (HCT-116 [22]) was “Active” and the Activity (HCT-116 [23]) was 19.93%. For the same compound, the Activity (HT-29 [24]) was 31.39%, the Activity (PC-3 [25]) was 22.17% and the Activity (HT-29 [26]) was 26.03%. The Activity (HCT-116 [27]) was 22.92%, the Activity (PC-3 [28]) was “Active” and the “fold change (FC)” value (HT-29 [29]) was 2.07. The Activity (DU-145 [30]) was 0.05%, the Activity (HT-29 [31]) was “Active” and the Activity (DU-145 [32]) was “inactive”.
